# Test results published in paper PMC9150124, “Design of a Potent, Selective, and Brain-Penetrant Inhibitor of Wnt-Deactivating Enzyme Notum by Optimization of a Crystallographic Fragment Hit” (Journal of Medicinal Chemistry, 2022).
# Assays:
# Test in all cases: SelectScreen kinase profiling, SSBK ZLyte SP Technology
# Assay type in all cases: biochemical
# [1] = molecular target: kinase named in conditions (Homo sapiens, UniProt P41743); conditions: PRKCI (PKC iota), 10 μM
# Description: (§1) Kinase selectivity screening was performed by Thermo Fisher Scientific (Paisley, U.K.) in their SelectScreen Biochemical Kinase Profiling Service. Assay information and data are presented in the Supporting Information.
# (§2) Kinase selectivity screening was performed by ThermoFisher Scientific (Paisley, U.K.) in their SelectScreenTM
# (§3) Biochemical Kinase Profiling service .
# [2] = molecular target: kinase named in conditions (Homo sapiens, UniProt Q16816); conditions: PHKG1, 10 μM
# Description: as §1, §2, §3
# [3] = molecular target: kinase named in conditions (Homo sapiens, UniProt P42684); conditions: ABL2 (Arg), 10 μM
# Description: as §1, §2, §3
# [4] = molecular target: kinase named in conditions (Homo sapiens, UniProt Q15139); conditions: PRKD1 (PKC mu), 10 μM
# Description: as §1, §2, §3
# [5] = molecular target: kinase named in conditions (Homo sapiens, UniProt Q96RG2); conditions: PASK, 10 μM
# Description: as §1, §2, §3
# [6] = molecular target: kinase named in conditions (Homo sapiens, UniProt P35968); conditions: KDR (VEGFR2), 10 μM
# Description: as §1, §2, §3
# [7] = molecular target: kinase named in conditions (Homo sapiens, UniProt Q6DT37); conditions: CDC42 BPG (MRCKG), 10 μM
# Description: as §1, §2, §3
# [8] = molecular target: kinase named in conditions (Homo sapiens, UniProt Q9H422); conditions: HIPK3 (YAK1), 10 μM
# Description: as §1, §2, §3
# [9] = molecular target: kinase named in conditions (Homo sapiens, UniProt P22455); conditions: FGFR4, 10 μM
# Description: as §1, §2, §3
# [10] = molecular target: kinase named in conditions (Homo sapiens, UniProt P43403); conditions: ZAP70, 10 μM
# Description: as §1, §2, §3
# [11] = molecular target: kinase named in conditions (Homo sapiens, UniProt Q8WTQ7); conditions: GRK7, 10 μM
# Description: as §1, §2, §3
# [12] = molecular target: kinase named in conditions (Homo sapiens, UniProt P52333); conditions: JAK3, 10 μM
# Description: as §1, §2, §3
# [13] = molecular target: kinase named in conditions (Homo sapiens, UniProt Q9Y6E0); conditions: STK24 (MST3), 10 μM
# Description: as §1, §2, §3
# [14] = molecular target: kinase named in conditions (Homo sapiens, UniProt Q9HBY8); conditions: SGK2, 10 μM
# Description: as §1, §2, §3
# [15] = molecular target: kinase named in conditions (Homo sapiens, UniProt Q16644); conditions: MAPKAPK3, 10 μM
# Description: as §1, §2, §3
# [16] = molecular target: kinase named in conditions (Homo sapiens, UniProt P19784); conditions: CSNK2A2 (CK2 alpha 2), 10 μM
# Description: as §1, §2, §3
# [17] = molecular target: kinase named in conditions (Homo sapiens, UniProt P31751); conditions: AKT2 (PKB beta), 10 μM
# Description: as §1, §2, §3
# [18] = molecular target: kinase named in conditions (Homo sapiens, UniProt P41279); conditions: MAP3K8 (COT), 10 μM
# Description: as §1, §2, §3
# [19] = molecular target: kinase named in conditions (Homo sapiens, UniProt P24941); conditions: CDK2/cyclin A, 10 μM
# Description: as §1, §2, §3
# [20] = molecular target: kinase named in conditions (Homo sapiens, UniProt P00533, C797S); conditions: EGFR (ErbB1) C797S, 10 μM
# Description: as §1, §2, §3
# [21] = molecular target: kinase named in conditions (Homo sapiens, UniProt P14616); conditions: INSRR (IRR), 10 μM
# Description: as §1, §2, §3
# [22] = molecular target: kinase named in conditions (Homo sapiens, UniProt Q15349); conditions: RPS6KA2 (RSK3), 10 μM
# Description: as §1, §2, §3
# [23] = molecular target: kinase named in conditions (Homo sapiens, UniProt P00519, T315I); conditions: ABL1 T315I, 10 μM
# Description: as §1, §2, §3
# [24] = molecular target: kinase named in conditions (Homo sapiens, UniProt P15056); conditions: BRAF, 10 μM
# Description: as §1, §2, §3
# [25] = molecular target: kinase named in conditions (Homo sapiens, UniProt P24723); conditions: PRKCH (PKC eta), 10 μM
# Description: as §1, §2, §3
# [26] = molecular target: kinase named in conditions (Homo sapiens, UniProt P17948); conditions: FLT1 (VEGFR1), 10 μM
# Description: as §1, §2, §3
# [27] = molecular target: kinase named in conditions (Homo sapiens, UniProt P25098); conditions: ADRBK1 (GRK2), 10 μM
# Description: as §1, §2, §3
# [28] = molecular target: kinase named in conditions (Homo sapiens, UniProt P43405); conditions: SYK, 10 μM
# Description: as §1, §2, §3
# [29] = molecular target: kinase named in conditions (Homo sapiens, UniProt Q15759); conditions: MAPK11 (p38 beta), 10 μM
# Description: as §1, §2, §3
# [30] = molecular target: kinase named in conditions (Homo sapiens, UniProt P48729); conditions: CSNK1A1 (CK1 alpha 1), 10 μM
# Description: as §1, §2, §3
# [31] = molecular target: kinase named in conditions (Homo sapiens, UniProt Q9NR20); conditions: read-out: % Inhibition mean
# Description: as §1, §2, §3
# [32] = molecular target: kinase named in conditions (Homo sapiens, UniProt Q9BZL6); conditions: PRKD2 (PKD2), 10 μM
# Description: as §1, §2, §3
# [33] = molecular target: kinase named in conditions (Homo sapiens, UniProt Q96PF2); conditions: STK22B (TSSK2), 10 μM
# Description: as §1, §2, §3
# [34] = molecular target: kinase named in conditions (Homo sapiens, UniProt Q9P286); conditions: PAK7 (KIAA1264), 10 μM
# Description: as §1, §2, §3
# Sequence of kinase named in conditions (Homo sapiens, UniProt P31751) (P31751 whole entry): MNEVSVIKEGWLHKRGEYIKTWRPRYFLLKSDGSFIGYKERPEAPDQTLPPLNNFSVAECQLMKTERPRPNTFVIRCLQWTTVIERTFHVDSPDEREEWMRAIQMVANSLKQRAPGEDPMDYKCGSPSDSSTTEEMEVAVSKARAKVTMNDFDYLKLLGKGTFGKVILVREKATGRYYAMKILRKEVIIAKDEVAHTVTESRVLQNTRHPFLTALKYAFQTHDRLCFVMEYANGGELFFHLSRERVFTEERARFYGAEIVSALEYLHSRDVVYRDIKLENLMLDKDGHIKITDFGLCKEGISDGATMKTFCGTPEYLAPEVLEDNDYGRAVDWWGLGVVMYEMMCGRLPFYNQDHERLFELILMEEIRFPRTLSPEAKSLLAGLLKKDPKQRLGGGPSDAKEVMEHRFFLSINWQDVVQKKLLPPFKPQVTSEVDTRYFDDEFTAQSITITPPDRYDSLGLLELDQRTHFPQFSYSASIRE
# Sequence of kinase named in conditions (Homo sapiens, UniProt P25098) (P25098 whole entry): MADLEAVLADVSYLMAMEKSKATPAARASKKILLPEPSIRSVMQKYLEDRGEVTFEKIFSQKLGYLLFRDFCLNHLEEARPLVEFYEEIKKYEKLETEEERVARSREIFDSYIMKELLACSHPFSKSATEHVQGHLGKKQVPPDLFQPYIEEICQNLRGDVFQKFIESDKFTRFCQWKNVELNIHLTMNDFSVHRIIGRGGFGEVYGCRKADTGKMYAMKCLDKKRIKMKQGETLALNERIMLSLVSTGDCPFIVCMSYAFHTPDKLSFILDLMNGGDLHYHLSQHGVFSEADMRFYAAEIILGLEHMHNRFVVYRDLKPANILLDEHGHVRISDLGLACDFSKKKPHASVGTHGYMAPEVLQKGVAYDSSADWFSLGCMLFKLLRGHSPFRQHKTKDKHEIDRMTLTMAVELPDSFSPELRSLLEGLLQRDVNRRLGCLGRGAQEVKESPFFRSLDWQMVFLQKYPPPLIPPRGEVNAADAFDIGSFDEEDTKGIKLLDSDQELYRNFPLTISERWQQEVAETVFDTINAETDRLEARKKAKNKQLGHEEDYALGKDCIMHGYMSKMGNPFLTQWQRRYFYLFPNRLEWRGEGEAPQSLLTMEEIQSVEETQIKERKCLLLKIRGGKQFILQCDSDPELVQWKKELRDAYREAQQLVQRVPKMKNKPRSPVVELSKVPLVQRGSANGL
# Sequence of kinase named in conditions (Homo sapiens, UniProt Q9NR20) (Q9NR20 whole entry): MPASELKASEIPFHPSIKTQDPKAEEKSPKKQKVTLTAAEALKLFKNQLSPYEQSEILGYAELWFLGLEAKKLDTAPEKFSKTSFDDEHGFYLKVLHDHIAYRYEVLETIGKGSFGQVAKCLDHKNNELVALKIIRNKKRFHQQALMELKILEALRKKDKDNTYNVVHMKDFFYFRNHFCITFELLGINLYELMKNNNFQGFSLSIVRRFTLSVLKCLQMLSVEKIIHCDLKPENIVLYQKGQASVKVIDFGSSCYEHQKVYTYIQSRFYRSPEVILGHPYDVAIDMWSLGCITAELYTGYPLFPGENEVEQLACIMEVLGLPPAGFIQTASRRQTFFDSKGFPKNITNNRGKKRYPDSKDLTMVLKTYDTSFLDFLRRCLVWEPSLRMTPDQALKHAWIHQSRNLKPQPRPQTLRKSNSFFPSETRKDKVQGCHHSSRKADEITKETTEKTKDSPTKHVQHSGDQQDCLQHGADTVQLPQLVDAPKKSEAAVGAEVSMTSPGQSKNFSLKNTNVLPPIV
# Sequence of kinase named in conditions (Homo sapiens, UniProt Q9H422) (Q9H422 whole entry): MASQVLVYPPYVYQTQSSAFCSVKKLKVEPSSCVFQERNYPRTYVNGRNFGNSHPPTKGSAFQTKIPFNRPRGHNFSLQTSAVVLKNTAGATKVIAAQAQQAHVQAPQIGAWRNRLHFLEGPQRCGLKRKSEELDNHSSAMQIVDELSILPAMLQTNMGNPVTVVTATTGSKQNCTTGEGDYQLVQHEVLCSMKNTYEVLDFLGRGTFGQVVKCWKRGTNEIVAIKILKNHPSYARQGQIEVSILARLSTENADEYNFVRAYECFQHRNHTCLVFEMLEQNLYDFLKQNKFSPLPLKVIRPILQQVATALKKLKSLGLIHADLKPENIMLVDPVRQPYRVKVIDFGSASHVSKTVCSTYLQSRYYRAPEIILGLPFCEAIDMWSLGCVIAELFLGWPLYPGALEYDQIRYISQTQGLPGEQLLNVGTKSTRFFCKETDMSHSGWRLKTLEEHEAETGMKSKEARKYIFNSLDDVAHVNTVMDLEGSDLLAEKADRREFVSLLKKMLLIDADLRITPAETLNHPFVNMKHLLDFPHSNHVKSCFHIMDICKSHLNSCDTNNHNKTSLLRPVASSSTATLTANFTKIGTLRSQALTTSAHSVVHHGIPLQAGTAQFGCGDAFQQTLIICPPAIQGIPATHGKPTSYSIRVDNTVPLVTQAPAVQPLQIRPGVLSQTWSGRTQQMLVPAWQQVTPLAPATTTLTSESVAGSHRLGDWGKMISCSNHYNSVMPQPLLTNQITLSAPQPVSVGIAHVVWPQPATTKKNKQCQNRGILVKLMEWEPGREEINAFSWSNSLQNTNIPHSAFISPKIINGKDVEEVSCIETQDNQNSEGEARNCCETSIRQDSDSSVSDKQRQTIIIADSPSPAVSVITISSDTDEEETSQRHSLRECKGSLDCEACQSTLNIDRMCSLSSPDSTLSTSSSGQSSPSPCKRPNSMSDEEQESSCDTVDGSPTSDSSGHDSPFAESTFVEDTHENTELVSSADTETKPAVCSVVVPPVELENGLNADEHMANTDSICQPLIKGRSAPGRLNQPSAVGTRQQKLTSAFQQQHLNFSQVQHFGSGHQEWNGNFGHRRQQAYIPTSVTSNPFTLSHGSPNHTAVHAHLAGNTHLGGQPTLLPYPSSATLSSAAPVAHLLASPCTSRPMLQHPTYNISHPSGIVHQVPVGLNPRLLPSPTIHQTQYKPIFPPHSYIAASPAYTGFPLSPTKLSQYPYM
# Sequence of kinase named in conditions (Homo sapiens, UniProt Q9Y6E0) (Q9Y6E0 whole entry): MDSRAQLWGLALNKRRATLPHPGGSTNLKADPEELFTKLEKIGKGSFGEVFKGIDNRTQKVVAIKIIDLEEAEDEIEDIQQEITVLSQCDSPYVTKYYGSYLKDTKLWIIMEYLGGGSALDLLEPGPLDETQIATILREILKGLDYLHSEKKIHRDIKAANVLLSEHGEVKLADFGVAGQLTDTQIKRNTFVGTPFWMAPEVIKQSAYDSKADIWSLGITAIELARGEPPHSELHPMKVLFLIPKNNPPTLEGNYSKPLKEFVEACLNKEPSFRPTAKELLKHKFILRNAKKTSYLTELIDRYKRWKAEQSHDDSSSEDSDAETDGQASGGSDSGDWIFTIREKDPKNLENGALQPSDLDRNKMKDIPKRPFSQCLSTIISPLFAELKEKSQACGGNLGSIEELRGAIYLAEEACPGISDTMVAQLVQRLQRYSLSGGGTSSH
# Sequence of kinase named in conditions (Homo sapiens, UniProt P41279) (P41279 whole entry): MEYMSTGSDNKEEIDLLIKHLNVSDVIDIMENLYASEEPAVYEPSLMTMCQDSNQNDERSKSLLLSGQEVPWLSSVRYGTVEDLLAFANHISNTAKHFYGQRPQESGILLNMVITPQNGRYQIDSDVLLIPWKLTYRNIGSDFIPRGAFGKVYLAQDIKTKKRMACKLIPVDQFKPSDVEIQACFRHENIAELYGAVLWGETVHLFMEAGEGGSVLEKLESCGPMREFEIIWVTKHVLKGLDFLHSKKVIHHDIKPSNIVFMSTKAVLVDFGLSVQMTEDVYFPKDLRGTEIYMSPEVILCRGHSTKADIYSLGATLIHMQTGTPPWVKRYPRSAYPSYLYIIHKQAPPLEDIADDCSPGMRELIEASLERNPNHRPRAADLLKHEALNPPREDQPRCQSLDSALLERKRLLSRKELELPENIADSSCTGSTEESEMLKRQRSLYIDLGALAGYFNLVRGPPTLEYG
# Sequence of kinase named in conditions (Homo sapiens, UniProt P42684) (P42684 whole entry): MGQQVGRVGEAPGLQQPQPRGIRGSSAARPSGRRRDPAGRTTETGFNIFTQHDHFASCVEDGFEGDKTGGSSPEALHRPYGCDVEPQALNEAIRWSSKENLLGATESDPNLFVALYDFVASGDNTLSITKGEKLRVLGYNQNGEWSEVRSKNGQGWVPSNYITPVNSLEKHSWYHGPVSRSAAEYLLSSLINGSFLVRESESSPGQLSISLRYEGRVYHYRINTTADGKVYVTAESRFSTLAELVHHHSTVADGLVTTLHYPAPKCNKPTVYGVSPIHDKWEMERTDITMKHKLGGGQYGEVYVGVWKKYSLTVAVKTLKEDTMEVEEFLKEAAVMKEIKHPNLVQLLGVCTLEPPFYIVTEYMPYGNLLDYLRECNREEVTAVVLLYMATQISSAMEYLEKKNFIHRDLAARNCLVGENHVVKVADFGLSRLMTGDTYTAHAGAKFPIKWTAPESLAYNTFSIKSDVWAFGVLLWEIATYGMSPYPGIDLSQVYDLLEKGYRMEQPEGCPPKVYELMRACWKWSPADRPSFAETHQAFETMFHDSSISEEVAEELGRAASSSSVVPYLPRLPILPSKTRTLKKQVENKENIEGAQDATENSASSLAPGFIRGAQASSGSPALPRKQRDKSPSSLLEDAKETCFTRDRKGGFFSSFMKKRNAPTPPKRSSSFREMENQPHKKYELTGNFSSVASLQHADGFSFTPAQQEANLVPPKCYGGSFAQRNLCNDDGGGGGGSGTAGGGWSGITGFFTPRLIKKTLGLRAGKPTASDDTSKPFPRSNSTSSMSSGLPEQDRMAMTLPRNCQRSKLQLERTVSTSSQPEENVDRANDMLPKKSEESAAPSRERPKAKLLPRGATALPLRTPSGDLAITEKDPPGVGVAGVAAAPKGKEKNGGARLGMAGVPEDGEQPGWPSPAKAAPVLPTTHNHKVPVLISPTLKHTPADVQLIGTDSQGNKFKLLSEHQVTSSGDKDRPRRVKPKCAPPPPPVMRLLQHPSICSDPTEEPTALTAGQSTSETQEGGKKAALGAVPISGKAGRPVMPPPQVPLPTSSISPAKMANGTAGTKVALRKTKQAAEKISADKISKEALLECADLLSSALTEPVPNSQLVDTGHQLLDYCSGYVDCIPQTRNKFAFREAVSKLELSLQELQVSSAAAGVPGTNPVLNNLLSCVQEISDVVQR
smiles,measurement,setting,value
"FC(F)(F)c1c(Cl)ccc(-n2ccnn2)c1Cl [8l, 1-(2,4-Dichloro-3-(trifluoromethyl)phenyl)-1H-1,2,3-triazole]",inhibition at 10 µM,[1],4%
same,inhibition at 10 µM,[2],8%
same,inhibition at 10 µM,[3],10%
same,inhibition at 10 µM,[4],11%
same,inhibition at 10 µM,[5],-1%
same,inhibition at 10 µM,[6],14%
same,inhibition at 10 µM,[7],2%
same,inhibition at 10 µM,[8],3%
same,inhibition at 10 µM,[9],2%
same,inhibition at 10 µM,[10],24%
same,inhibition at 10 µM,[11],0%
same,inhibition at 10 µM,[12],7%
same,inhibition at 10 µM,[13],5%
same,inhibition at 10 µM,[14],4%
same,inhibition at 10 µM,[15],1%
same,inhibition at 10 µM,[16],17%
same,inhibition at 10 µM,[17],7%
same,inhibition at 10 µM,[18],0%
same,inhibition at 10 µM,[19],6%
same,inhibition at 10 µM,[20],-2%
same,inhibition at 10 µM,[21],11%
same,inhibition at 10 µM,[22],5%
same,inhibition at 10 µM,[23],0%
same,inhibition at 10 µM,[24],9%
same,inhibition at 10 µM,[25],-1%
same,inhibition at 10 µM,[26],8%
same,inhibition at 10 µM,[27],4%
same,inhibition at 10 µM,[28],6%
same,inhibition at 10 µM,[29],6%
same,inhibition at 10 µM,[30],2%
same,inhibition at 10 µM,[31],1%
same,inhibition at 10 µM,[32],0%
same,inhibition at 10 µM,[33],-2%
same,inhibition at 10 µM,[34],8%
